Reference: ChEMBL document CHEMBL1201862, “PubChem BioAssay data set” (2004)
Active and inactive are the calls of the source. Cut-off read from the data, not from the text of the source: actives have a measured IC50 and inactives only a lower limit.

Target: Envelope glycoprotein gp160 (Human immunodeficiency virus 1, UniProt Q6QLK5)
Assay: inhibitors of HIV fusion peptide binding, primary screen, biochemical, uHTS, fluorescence dequenching (AID 1986)

Envelope glycoprotein gp160, sequence (Q6QLK5 whole entry, the tested form may be a part): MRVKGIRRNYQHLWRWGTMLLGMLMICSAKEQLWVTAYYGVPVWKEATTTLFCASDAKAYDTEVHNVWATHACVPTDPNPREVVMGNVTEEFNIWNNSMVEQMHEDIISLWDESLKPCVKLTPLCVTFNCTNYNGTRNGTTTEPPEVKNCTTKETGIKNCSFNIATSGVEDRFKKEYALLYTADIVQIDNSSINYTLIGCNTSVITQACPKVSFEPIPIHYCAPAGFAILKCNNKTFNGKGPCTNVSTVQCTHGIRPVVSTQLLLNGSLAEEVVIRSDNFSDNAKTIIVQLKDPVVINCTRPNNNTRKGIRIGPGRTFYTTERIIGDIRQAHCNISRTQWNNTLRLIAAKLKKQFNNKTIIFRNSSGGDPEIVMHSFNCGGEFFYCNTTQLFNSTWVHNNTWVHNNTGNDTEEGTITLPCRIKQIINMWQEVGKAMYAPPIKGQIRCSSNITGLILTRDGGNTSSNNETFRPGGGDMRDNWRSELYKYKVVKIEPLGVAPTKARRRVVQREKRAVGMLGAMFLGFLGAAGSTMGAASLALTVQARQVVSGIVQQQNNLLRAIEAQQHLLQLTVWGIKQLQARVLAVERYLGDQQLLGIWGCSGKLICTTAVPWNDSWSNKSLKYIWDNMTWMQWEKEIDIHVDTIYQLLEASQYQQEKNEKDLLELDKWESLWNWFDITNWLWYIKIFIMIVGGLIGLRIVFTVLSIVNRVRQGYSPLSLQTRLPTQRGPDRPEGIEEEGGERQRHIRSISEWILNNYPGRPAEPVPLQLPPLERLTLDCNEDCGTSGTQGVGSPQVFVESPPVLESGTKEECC

**Q.** CCCOc1cccc(C2C(C(=O)c3cc4ccccc4o3)=C(O)C(=O)N2c2cc(C)on2)c1 (centres undefined) was tested. Which IC50 did it give?
**A.** 16.9 µM (active)

**Q.** For O=C(CCN1C(=O)/C(=C/c2ccco2)SC1=S)Nc1ccc(C(=O)O)c(O)c1, which IC50 is on record?
**A.** 14.7 µM (active)

**Q.** For O=C(O)CN1C(=O)/C(=C\c2cc(Br)ccc2OCc2ccccc2Cl)SC1=S, which IC50 is on record?
**A.** 14.3 µM (active)

**Q.** For O=C(O)CN1C(=O)/C(=C\c2cc(Br)ccc2OCc2ccc(F)cc2)SC1=S, which IC50 is on record?
**A.** 10.7 µM (active)
